From patent US8946205B2, “1,2,4-triazolo[4,3-a]pyridine derivatives and their use as positive allosteric modulators of mGluR2 receptors” (Janssen Pharmaceuticals, Inc., priority 2009, dated 2015)

How the values were obtained:
human mGluR2 receptor = target: T1, human mGluR2 receptor (Homo sapiens, UniProt Q14416); experiment: [35S]GTPγS binding assay (PAM assay, membranes from CHO cells transfected with the human mGluR2 receptor); assay type: biochemical; conditions: in presence of glutamate at EC20; pEC50 = -log EC50 (mol/L); read-out: GTPγS-hR2 PAM pEC50 (converted)
T1 construct: expressed in transfected cells; host or cells: CHO cells (membranes)
T1 sequence (Q14416 19-872): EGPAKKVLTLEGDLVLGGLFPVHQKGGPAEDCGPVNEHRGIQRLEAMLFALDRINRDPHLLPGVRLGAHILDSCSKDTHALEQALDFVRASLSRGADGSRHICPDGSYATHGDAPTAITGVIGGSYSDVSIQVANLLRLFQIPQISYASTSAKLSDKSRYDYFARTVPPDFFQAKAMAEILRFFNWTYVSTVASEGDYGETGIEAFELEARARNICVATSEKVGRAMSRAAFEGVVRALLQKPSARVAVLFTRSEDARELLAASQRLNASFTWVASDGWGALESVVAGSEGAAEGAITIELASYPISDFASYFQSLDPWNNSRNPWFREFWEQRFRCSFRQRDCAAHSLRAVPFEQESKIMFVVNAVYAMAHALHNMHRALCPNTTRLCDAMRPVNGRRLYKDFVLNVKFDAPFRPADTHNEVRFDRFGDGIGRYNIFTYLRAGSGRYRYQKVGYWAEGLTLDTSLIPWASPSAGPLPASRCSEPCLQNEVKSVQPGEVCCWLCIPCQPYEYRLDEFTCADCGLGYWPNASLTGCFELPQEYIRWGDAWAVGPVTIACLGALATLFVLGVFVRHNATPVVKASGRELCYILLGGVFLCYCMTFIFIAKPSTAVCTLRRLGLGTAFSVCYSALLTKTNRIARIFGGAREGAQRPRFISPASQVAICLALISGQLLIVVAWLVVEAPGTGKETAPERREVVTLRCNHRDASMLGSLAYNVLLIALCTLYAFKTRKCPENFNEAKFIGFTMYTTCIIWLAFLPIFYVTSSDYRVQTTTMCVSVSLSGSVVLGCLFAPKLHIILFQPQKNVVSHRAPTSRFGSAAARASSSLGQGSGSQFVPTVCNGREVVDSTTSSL
Protocol: The [^35S]GTPγS binding assay is a functional membrane-based assay used to study G-protein coupled receptor (GPCR) function whereby incorporation of a non-hydrolysable form of GTP, [^35S]GTPγS (guanosine 5′-triphosphate, labelled with […] ^35S), is measured. The G-protein α subunit catalyzes the exchange of guanosine 5′-diphosphate (GDP) by guanosine triphosphate (GTP) and on activation of the GPCR by an agonist, [^35S]GTPγS, becomes incorporated and cannot be cleaved to continue the exchange cycle (Harper (1998) Current Protocols in Pharmacology 2.6.1-10, John Wiley & Sons, Inc.). […] Here we describe the use of the [^35S]GTPγS binding assay using membranes from cells transfected with the human mGluR2 receptor and adapted from Schaffhauser et al. ((2003) Molecular Pharmacology 4:798-810) for the detection of the positive allosteric modulation (PAM) properties of the compounds of this invention.
CHO-cells were cultured to pre-confluence and stimulated with 5 mM butyrate for 24 h, prior to washing in PBS, and then collected by scraping in homogenisation buffer (50 mM Tris-HCl buffer, pH 7.4, 4° C.). Cell lysates were homogenized briefly using an ultra-turrax homogenizer. The homogenate was centrifuged at 16,000 RPM (Sorvall RC-5C plus rotor SS-34) for 10 minutes and the supernatant discarded. The pellet was resuspended in 5 mM Tris-HCl, pH 7.4 and centrifuged again (18,000 RPM, 20 min, 4° C.). The final pellet was resuspended in 50 mM Tris-HCl, pH 7.4 and stored at −80° C. in appropriate aliquots before use. Protein concentration was determined by the Bradford method (Bio-Rad, USA) with bovine serum albumin as standard.
Measurement of mGluR2 positive allosteric modulatory activity of test compounds was performed as follows. Test compounds and glutamate were diluted in assay buffer containing 10 mM HEPES acid, 10 mM HEPES salt, pH 7.4, 100 mM NaCl, 3 mM MgCl2 and 10 μM GDP. Human mGlu2 receptor-containing membranes were thawed on ice and diluted in assay buffer supplemented with 14 μg/ml saponin. Membranes were pre-incubated with compound alone or together with a predefined (˜EC20) concentration of glutamate (PAM assay) for 30 min at 30° C. After addition of [^35S]GTPγS (f.c. 0.1 nM) microplates were shaken briefly and further incubated to allow [^35S]GTPγS incorporation on activation (30 minutes, 30° C.). Final assay mixtures contained 7 μg of membrane protein in 10 mM HEPES acid, 10 mM HEPES salt, pH 7.4, 100 mM NaCl, 3 mM MgCl2,10 μM GDP and 10 μg/ml saponin. Total reaction volume was 200 μl. Reactions were terminated by rapid filtration through Unifilter-96 GF/B filter plates (Packard, Meriden, Conn.) using a 96-well Packard filtermate harvester. Filters were washed 6 times with ice-cold 10 mM NaH2PO4/10 mM Na2HPO4, pH 7.4. Filters were then air-dried, and 40 μl of liquid scintillation cocktail (Microscint-O) was added to each well. Membrane-bound radioactivity was counted in a Microplate Scintillation and Luminescence Counter from Packard.
The concentration-response curves of representative compounds of the present invention—obtained in the presence of EC20 of mGluR2 agonist glutamate to determine positive allosteric modulation (PAM)—were generated using the Lexis software interface (developed at J&J). Data were calculated as % of the control glutamate response, defined as the maximal response that is generated upon addition of glutamate alone. Sigmoid concentration-response curves plotting these percentages versus the log concentration of the test compound were analyzed using non-linear regression analysis. The concentration producing half-maximal effect is then calculated as EC50. The pEC50 values below are calculated as the −log EC50 (wherein EC50 is expressed in mol/L). […]

Compound	melting point [°C]	EC50 (human mGluR2 receptor) [nM]
FC(F)(F)Cc1nnc2c(Cl)c(-c3ccc4c(ccn4-c4ccccn4)c3)ccn12 [Compound 1]	> 300	43.7
FC(F)(F)c1c(-c2ccc3c(ccn3C3CCOCC3)c2)ccn2c(CC3CC3)nnc12 [Compound 3]	193.1	28.2
FC(F)(F)Cc1nnc2c(Cl)c(-c3ccc4c(ccn4-c4ncccn4)c3)ccn12 [Compound 6]	–	33.9
FC(F)(F)c1c(-c2ccc3c(ccn3-c3ncccn3)c2)ccn2c(CC3CC3)nnc12 [Compound 7]	–	11.5
CCOCc1nnc2c(Cl)c(-c3ccc4c(ccn4-c4ccccn4)c3)ccn12 [Compound 18]	235	288
CCOCc1nnc2c(Cl)c(-c3ccc4c(ccn4-c4ncccn4)c3)ccn12 [Compound 19]	–	126
Cc1ccc(-n2ccc3cc(-c4ccn5c(CC6CC6)nnc5c4Cl)ccc32)cn1 [Compound 21, 8-Chloro-3-cyclopropylmethyl-7-[1-(2-methylpyridin-5-yl)-1H-indol-5-yl]-[1,2,4]triazolo[4,3-a]pyridine]	137.2	23.4
Clc1c(-c2cnc3c(ccn3CC3CC3)c2)ccn2c(CC3CC3)nnc12 [Compound 22, 8-Chloro-3-cyclopropylmethyl-7-(1-cyclopropylmethyl-1H-pyrrolo[2,3-b]pyridin-5-yl)-[1,2,4]triazolo[4,3-a]pyridine]	184.7	324
CCOCc1nnc2c(Cl)c(-c3cc(Cl)c4[nH]ccc4c3)ccn12 [Compound 23]	–	95.5
FC(F)(F)c1c(-c2cnc3[nH]ccc3c2)ccn2c(CC3CC3)nnc12 [Compound 24]	> 300	1410
FC(F)(F)c1c(-c2cnc3c(ccn3CC3CC3)c2)ccn2c(CC3CC3)nnc12 [Compound 25]	> 300	182
CCOCc1nnc2c(Cl)c(-c3ccc4c(ccn4-c4cccnc4)c3)ccn12 [Compound 26]	233.2	182
CCOCc1nnc2c(Cl)c(-c3ccc4c(ccn4-c4ccc(C)nc4)c3)ccn12 [Compound 27]	188.9	56.2
CCOCc1nnc2c(C(F)(F)F)c(-c3ccc4c(ccn4-c4cccnc4)c3)ccn12 [Compound 30]	182.4	33.9
CCOCc1nnc2c(C(F)(F)F)c(-c3ccc4c(ccn4-c4ccc(C)nc4)c3)ccn12 [Compound 32]	163.1	17.4
CCOCc1nnc2c(C(F)(F)F)c(-c3ccc4[nH]ccc4c3)ccn12 [Compound 33]	200.1	–
FC(F)(F)c1c(-c2ccc3c(ccn3-c3cccnc3)c2)ccn2c(CC3CC3)nnc12 [Compound 34]	144.3	–
Cc1ccc(-n2ccc3cc(-c4ccn5c(CC6CC6)nnc5c4C)ccc32)cn1 [Compound 35, 8-Methyl-3-cyclopropylmethyl-7-[1-(2-methylpyridin-5-yl)-1H-indol-5-yl]-[1,2,4]triazolo[4,3-a]pyridine]	263.3	70.8
Cc1ccc(-n2ccc3cc(-c4ccn5c(CC6CC6)nnc5c4C(F)(F)F)ccc32)cn1 [Compound 36]	204	9.33
Cc1ccc(-n2ccc3cc(-c4ccn5c(CC6CC6)nnc5c4C4CC4)ccc32)cn1 [Compound 37]	> 300	39.8
Cc1ccc(-n2ccc3cc(-c4ccn5c(CC6CC6)nnc5c4C(F)(F)F)cc(F)c32)cn1 [Compound 38]	> 300	17
Clc1c(-c2cnc3c(ccn3CC3CCC3)c2)ccn2c(CC3CC3)nnc12 [Compound 39]	> 300	126
Cc1c(-c2cnc3c(ccn3CC3CC3)c2)ccn2c(CC3CC3)nnc12 [Compound 40]	> 300	407
Fc1cnccc1-n1ccc2cc(-c3ccn4c(CC5CC5)nnc4c3Cl)ccc21 [Compound 42, 8-Chloro-3-cyclopropylmethyl-7-[1-(3-fluoro-pyridin-4-yl)-1H-indol-5-yl]-[1,2,4]triazolo[4,3-a]pyridine]	> 300	28.8
FC(F)(F)c1c(-c2ccc3c(ccn3-c3ccncc3)c2)ccn2c(CC3CC3)nnc12 [Compound 43]	> 300	16.6
Cc1cc(-n2ccc3cc(-c4ccn5c(CC6CC6)nnc5c4C(F)(F)F)ccc32)ccn1 [Compound 46]	> 300	8.13
Cc1cc(-n2ccc3cc(-c4ccn5c(CC6CC6)nnc5c4Cl)ccc32)ccn1 [Compound 47]	> 300	39.8
Fc1cc(-c2ccn3c(CC4CC4)nnc3c2Cl)cc2ccn(-c3cccnc3)c12 [Compound 48]	195.6	46.8
CCOCc1nnc2c(C)c(-c3ccc4c(ccn4-c4ccc(C)nc4)c3)ccn12 [Compound 49]	108.5	174

Results, then the molecule that gave them:

melting point [°C]	EC50 (human mGluR2 receptor) [nM]	Compound
> 300	64.6	Clc1c(-c2ccc3c(ccn3C3CCOCC3)c2)ccn2c(CC3CC3)nnc12 [Compound 2]
233.5	25.1	Clc1cc(-c2ccn3c(CC4CC4)nnc3c2Cl)cc2cc[nH]c12 [Compound 8]
–	158	CC(C)(O)Cn1ccc2cc(-c3ccn4c(CC5CC5)nnc4c3Cl)ccc21 [Compound 9]
> 300	52.5	O[C@H]1CC[C@H](n2ccc3cc(-c4ccn5c(CC6CC6)nnc5c4Cl)ccc32)CC1 [Compound 10]
–	871	Clc1c(-c2ccc3nn(Cc4cccnc4)cc3c2)ccn2c(CC3CC3)nnc12 [Compound 11]
> 300	813	Clc1c(-c2cccc3[nH]ccc23)ccn2c(CC3CC3)nnc12 [Compound 13]
> 300	11	FC(F)(F)c1c(-c2cc(Cl)c3[nH]ccc3c2)ccn2c(CC3CC3)nnc12 [Compound 14]
> 300	53.7	Clc1c(-c2ccc3c(ccn3-c3ncccn3)c2)ccn2c(CC3CC3)nnc12 [Compound 15]
197.1	67.6	Clc1c(-c2ccc3c(ccn3-c3ccccn3)c2)ccn2c(CC3CC3)nnc12 [Compound 16]
> 300	251	Clc1c(-c2ccc3[nH]ccc3c2)ccn2c(CC3CC3)nnc12 [Compound 20]
235.5	117	Fc1cc(-c2ccn3c(CC4CC4)nnc3c2Cl)cc2cc[nH]c12 [Compound 28]
176.4	1260	CCOCc1nnc2c(Cl)c(-c3ccc4[nH]ccc4c3)ccn12 [Compound 29]
> 300	603	Clc1c(-c2cnc3c(ccn3-c3ccccn3)c2)ccn2c(CC3CC3)nnc12 [Compound 41]
> 300	66.1	Clc1c(-c2ccc3c(ccn3-c3ccncc3)c2)ccn2c(CC3CC3)nnc12 [Compound 44]
